Laboratory results from US10449216B2, “Modulating drug effects against metabotropic glutamate receptor with extracellular calcium” (GEORGIA STATE UNIVERSITY RESEARCH FOUNDATION, INC., priority 2013, dated 2019).
Entries after “also recorded” stand apart in the source; their conditions may differ. Like-named read-outs stand apart in the source and are kept apart here.

Key:
mGluR1 [1] = biological target: mGluR1 (Homo sapiens, UniProt Q13255); conditions: mGluR1, Sp. Hs; cited from earlier work
mGluR1 [2] = biological target: mGluR1 (Rattus norvegicus, UniProt P23385); conditions: mGluR1, Sp. Rn; cited from earlier work
mGluR5 [3] = biological target: mGluR5 (Homo sapiens, UniProt P41594); conditions: mGluR5, Sp. Hs; cited from earlier work
mGluR5 [4] = biological target: T1, mGluR5 (Rattus norvegicus, UniProt P31424); test: Intracellular Ca^2+ response/oscillation in mGluR5 transfected HEK293 cells; assay type: cell-based; parameters: expressed in transfected cells; host or cells: HEK293; conditions: for Percentage of cells with oscillation as a response to L-Glu: low concentration of L-Glu
Procedure: HEK293 cells were fed on a Dulbecco's Modified Eagle Medium (DMEM) and 10% fetal bovine serum (Invitrogen) and cultured at 37° C. in a humidified incubator with 5% CO2. One day before transfection, HEK293 cells were grown on 22×44 mm coverslips and then were transfected with mGluR5 plasmid (received as a gift from Dr. Randy Hall, Emory University, Atlanta, Ga.) with the aid of lipofectamine 2000 (Invitrogen). mGluR5 transfected HEK293 cells were grown for 48 hours and then loaded with 4 µM Fura-2 AM in loading buffer containing 10 mM HEPES (pH 7.4), 140 mM NaCl, 5 mM KCl, 0.55 mM MgCl2 for 30 minutes at 37° C. The coverslips were then mounted in a bathing chamber on the stage of a fluorescence microscope. […] The ratio of fluorescence emitted at 510 nm resulting from excitation at 340 or 380 nm was analyzed to obtain the [Ca^2+]i response as a function of changes in [Ca^2+]o.
HEK293 cells were cultured and transfected as described above. Intracellular Ca^2+ concentration was recorded using the method as described previously. […]

WT mGluR1α = biological target: T2, WT mGluR1α (Rattus norvegicus, UniProt P23385); test: Single cell Fura-2 [Ca^2+]i response in HEK293 cells transiently transfected with WT mGluR1α; assay type: cell-based; conditions: for Max. Res. to Ro 67-4853: normalized to maximal response of WT mGluR1α to L-Glu; for EC50: read-out: EC50 of Ro 67-4853
T2 construct: expressed in transfected cells; host or cells: HEK293
Procedure: The methods for measuring [Ca^2+]i responses were as described above. In the presence of (s)-MCPG, the cells were incubated with 0.5 mM (s)-MCPG in a saline buffer for 30 more minutes after Fura-2 loading.
Fura-2AM was used for monitoring [Ca^2+]i in real time as described above. […] Cells loaded with Fura-2AM were mounted onto a chamber perfused with saline buffer.

mGluR5 [5] = biological target: T1, mGluR5; conditions: mGluR5, Sp. Rn; cited from earlier work
mGluR1α E325I = biological target: T3, mGluR1α E325I (Rattus norvegicus, UniProt P23385, E325I); test: Single cell Fura-2 [Ca^2+]i response in HEK293 cells transfected with mGluR1α variant E325I; assay type: cell-based; conditions: HEK293, read-out: Maximal Response to L-Quis, E325I, normalized to maximal response of WT mGluR1α to L-Glu
T3 construct: expressed in transfected cells; host or cells: HEK293

mGluR1α D322I = biological target: T4, mGluR1α D322I (Rattus norvegicus, UniProt P23385, D322I); test: Single cell Fura-2 [Ca^2+]i response in HEK293 cells transfected with mGluR1α variant D322I; assay type: cell-based; conditions: HEK293, read-out: Maximal Response to L-Quis, D322I, normalized to maximal response of WT mGluR1α to L-Glu
T4 construct: expressed in transfected cells; host or cells: HEK293

mGluR1α D318I = biological target: T5, mGluR1α D318I (Rattus norvegicus, UniProt P23385, D318I); test: [^3H]-L-Quis binding to membranes of HEK293 cells expressing D318I; conditions: hypotonic buffer
T5 construct: expressed in transfected cells; host or cells: HEK293
Procedure: HEK293 cells transiently transfected with wild type mGluR1α or its mutants were maintained in a 5% CO2 37° C. incubator for an additional 48 hours as before. Cells were then collected in ice cold hypotonic buffer (20 mM HEPES, 100 mM NaCl, 5 mM MgCl2, 5 mM KCl, 0.5 mM EDTA, and 1% protease inhibitors at pH 7.0-7.5). The cell pellet was washed twice more using hypotonic buffer to remove the L-Glu in the cellular debris. The crude membrane protein (100 μg) was mixed with 30 nM [^3H]-L-Quis in 100 μL of hypotonic buffer. The nonspecific binding was determined by measuring bound [^3H]-L-Quis in the presence of 200 μM L-Glu. […] The reaction mixtures were incubated on ice for at least 1 hour, and the membrane-bound [^3H]-L-Quis was captured on filter paper using a Brandel cell harvester under vacuum. The filter paper was then transferred to scintillation fluid, and [^3H]-L-Quis was detected using a Beckman LS 6500 multi-purpose scintillation counter.

Sequence of mGluR1 (Homo sapiens, UniProt Q13255) (Q13255 19-1194): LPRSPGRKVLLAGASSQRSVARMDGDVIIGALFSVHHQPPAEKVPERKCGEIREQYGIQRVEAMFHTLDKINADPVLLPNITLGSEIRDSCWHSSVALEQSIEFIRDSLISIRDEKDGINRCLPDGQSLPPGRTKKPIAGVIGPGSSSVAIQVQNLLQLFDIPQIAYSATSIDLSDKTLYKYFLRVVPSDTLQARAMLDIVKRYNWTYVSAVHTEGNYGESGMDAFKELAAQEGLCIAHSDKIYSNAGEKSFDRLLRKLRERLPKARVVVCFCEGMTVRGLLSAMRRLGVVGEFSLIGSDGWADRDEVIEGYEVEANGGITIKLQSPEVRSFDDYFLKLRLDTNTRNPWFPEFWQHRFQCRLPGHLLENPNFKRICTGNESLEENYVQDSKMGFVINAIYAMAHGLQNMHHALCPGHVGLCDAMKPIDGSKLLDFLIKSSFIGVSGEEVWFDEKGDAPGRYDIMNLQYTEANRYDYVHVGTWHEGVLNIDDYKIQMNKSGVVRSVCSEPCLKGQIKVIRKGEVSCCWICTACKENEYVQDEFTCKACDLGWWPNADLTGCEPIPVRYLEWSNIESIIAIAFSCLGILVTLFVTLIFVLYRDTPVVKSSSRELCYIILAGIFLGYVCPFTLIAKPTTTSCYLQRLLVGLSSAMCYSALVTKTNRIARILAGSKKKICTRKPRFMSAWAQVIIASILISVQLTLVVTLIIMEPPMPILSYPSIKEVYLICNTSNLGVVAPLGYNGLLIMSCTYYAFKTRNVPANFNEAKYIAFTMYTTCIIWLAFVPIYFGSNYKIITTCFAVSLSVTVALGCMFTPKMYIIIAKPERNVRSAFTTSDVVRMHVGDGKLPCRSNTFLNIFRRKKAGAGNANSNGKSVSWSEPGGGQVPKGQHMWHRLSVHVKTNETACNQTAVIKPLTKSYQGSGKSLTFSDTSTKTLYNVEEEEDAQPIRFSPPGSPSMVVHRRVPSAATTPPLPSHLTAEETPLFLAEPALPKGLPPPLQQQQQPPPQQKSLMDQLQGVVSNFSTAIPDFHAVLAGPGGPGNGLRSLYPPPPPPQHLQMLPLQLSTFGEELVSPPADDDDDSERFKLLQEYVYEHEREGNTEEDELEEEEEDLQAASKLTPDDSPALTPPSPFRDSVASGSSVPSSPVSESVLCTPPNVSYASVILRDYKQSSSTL
T1 sequence (P31424 21-1203): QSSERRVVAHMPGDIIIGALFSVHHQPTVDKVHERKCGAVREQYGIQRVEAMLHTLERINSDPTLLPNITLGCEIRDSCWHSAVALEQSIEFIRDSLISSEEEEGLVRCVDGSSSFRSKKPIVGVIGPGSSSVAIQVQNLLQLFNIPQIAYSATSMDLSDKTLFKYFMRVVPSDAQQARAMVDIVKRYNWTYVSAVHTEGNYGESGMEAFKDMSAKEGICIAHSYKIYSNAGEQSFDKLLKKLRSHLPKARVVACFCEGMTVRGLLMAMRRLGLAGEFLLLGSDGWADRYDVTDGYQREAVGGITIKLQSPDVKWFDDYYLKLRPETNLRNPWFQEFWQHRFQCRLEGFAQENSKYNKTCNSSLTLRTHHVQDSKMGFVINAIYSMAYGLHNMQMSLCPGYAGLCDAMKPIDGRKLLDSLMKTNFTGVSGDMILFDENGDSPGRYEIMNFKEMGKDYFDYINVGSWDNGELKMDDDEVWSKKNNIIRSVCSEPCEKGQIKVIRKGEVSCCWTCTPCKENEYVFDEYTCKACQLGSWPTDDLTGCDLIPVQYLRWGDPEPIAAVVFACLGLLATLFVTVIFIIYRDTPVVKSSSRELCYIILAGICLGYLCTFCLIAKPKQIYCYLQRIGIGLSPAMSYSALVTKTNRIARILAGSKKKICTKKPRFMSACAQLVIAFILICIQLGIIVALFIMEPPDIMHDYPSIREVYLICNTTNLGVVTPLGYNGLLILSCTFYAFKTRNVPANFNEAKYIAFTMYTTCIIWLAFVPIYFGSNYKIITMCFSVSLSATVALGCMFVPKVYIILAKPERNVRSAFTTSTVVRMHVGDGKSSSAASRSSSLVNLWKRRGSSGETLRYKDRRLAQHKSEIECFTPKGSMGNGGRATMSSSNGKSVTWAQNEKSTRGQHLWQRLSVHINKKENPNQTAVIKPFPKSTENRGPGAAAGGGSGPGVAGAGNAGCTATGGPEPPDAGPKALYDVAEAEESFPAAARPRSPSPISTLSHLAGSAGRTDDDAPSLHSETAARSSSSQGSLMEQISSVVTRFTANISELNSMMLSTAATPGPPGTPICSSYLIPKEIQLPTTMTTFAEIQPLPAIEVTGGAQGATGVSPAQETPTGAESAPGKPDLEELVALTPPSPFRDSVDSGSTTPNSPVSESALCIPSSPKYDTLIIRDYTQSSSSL
Sequence of mGluR5 (Homo sapiens, UniProt P41594) (P41594 21-1212): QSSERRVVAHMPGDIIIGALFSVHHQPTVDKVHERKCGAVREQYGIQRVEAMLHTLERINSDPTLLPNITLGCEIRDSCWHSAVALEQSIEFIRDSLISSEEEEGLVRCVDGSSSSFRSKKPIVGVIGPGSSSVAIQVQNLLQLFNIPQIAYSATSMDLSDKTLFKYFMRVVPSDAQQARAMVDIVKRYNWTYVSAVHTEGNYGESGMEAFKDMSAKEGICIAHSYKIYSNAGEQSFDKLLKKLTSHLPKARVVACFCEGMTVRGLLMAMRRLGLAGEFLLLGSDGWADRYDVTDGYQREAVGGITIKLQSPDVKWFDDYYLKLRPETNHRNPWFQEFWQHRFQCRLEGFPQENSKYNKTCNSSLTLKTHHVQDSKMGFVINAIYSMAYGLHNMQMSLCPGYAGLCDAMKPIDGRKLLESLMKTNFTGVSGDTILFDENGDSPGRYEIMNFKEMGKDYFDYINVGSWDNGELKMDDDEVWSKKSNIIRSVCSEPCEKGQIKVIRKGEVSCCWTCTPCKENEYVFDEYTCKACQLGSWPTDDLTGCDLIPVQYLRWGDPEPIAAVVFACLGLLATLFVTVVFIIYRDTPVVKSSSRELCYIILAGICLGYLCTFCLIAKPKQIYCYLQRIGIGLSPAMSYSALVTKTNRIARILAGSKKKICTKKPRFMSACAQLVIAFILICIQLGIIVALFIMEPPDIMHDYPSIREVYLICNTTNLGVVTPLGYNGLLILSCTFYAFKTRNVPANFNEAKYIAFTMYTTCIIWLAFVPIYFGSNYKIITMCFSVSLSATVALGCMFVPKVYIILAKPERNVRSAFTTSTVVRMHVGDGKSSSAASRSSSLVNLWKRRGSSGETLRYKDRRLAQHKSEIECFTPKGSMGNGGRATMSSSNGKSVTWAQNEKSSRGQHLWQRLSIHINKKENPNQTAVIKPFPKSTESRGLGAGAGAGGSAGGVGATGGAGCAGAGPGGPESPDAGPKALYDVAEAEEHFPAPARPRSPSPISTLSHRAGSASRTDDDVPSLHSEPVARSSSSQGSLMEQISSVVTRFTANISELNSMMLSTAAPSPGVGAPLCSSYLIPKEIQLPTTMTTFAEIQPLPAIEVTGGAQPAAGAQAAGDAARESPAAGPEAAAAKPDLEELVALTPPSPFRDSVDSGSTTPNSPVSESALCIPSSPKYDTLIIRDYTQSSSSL
T2 sequence (P23385 19-1199): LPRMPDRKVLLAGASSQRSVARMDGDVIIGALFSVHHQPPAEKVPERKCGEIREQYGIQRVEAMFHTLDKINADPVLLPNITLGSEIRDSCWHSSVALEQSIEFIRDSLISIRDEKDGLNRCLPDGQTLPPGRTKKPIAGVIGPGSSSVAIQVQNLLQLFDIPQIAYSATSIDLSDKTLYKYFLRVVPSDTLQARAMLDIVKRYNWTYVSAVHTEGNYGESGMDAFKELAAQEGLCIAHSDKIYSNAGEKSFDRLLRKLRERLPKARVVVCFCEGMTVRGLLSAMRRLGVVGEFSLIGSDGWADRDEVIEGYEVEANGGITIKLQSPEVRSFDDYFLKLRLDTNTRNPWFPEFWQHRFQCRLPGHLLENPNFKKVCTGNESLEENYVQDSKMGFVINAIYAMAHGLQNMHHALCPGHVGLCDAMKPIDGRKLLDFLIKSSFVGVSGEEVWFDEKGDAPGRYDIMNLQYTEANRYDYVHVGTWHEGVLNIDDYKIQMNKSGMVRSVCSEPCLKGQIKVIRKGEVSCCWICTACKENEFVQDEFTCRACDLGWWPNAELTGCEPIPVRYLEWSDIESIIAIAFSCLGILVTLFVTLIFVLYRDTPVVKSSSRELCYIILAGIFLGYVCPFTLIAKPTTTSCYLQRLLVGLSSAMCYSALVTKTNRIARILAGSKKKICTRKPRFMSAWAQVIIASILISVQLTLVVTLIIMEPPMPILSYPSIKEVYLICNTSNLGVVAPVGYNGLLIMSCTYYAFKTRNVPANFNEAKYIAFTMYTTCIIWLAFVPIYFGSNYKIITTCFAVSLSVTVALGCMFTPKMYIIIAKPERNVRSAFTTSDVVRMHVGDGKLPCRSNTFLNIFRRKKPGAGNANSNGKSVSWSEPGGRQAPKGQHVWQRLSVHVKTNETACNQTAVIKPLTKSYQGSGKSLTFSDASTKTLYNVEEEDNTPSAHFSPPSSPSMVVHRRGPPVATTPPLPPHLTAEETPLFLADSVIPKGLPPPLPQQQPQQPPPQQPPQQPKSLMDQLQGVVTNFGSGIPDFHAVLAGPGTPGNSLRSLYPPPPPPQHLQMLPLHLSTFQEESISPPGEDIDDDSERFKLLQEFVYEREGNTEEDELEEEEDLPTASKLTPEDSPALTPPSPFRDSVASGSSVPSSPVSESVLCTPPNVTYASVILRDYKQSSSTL
Sequence of mGluR1 (Rattus norvegicus, UniProt P23385) (P23385 19-1199): as above
T4 sequence (P23385 19-1199 D322I): as the sequence (P23385 19-1199) above, with D304I counted along it
T3 sequence (P23385 19-1199 E325I): as the sequence (P23385 19-1199) above, with E307I counted along it
T5 sequence (P23385 19-1199 D318I): as the sequence (P23385 19-1199) above, with D300I counted along it

Compound: O=C(Cc1ccccc1)c1ccc2nc3c(cc2c1)CCCO3 [R214127]
- Affinity (pIC50) (mGluR1 [1]): 8.9 pIC50
- Affinity (pKi) (mGluR1 [2]): 8.9 pKi

Compound: Cc1cccc(/C=C/c2ccccc2)n1 [SIB-1893]
- Affinity (pIC50) (mGluR5 [3]): 5.9-6.5 pIC50

Compound: N[C@@H](CCC(=O)O)C(=O)O [L-Glu, L-glutamic acid]
- Percentage of cells with oscillation as a response to L-Glu (mGluR5 [4]; 0.5 or 1.8 mM extracellular Ca^2+): more than 50%
- Percentage of cells with oscillation as a response to L-Glu (mGluR5 [4]; without extracellular Ca^2+): less than 10%

Compound: Cc1ccc(O)c(N=Nc2ccccc2)n1 [SIB-1757]
- Affinity (pIC50) (mGluR5 [3]): 6.0-6.4 pIC50

Compound: CCCCOC(=O)NC(=O)C1c2ccccc2Oc2ccccc21 [Ro 67-4853, (9H-xanthene-9-carbonyl) carbamic acid butyl ester]
- Stimulation of mGluR5 (intracellular Ca^2+ oscillation) (mGluR5 [4]; 0.5 mM Ca^2+, 5 nM): could lead to the stimulation of mGluR5; also recorded: caused high frequency Ca^2+ oscillation
- Stimulation of mGluR5 (intracellular Ca^2+ response) (mGluR5 [4]; no Ca^2+ in the bath solution, 5 to 100 nM): no intracellular Ca^2+ response was observed; also recorded: could not stimulate mGluR5
- Max. Res. to Ro 67-4853 (WT mGluR1α; [Ca^2+]o 0.5 mM): 50 ± 8
- EC50 (WT mGluR1α; [Ca^2+]o 0.5 mM, pre-incubated with 0.5 mM Ca^2+ and 5 nM Ro 67-4853): 0.0207 µM
- Max. Res. to Ro 67-4853 (WT mGluR1α; [Ca^2+]o 1.8 mM): 59 ± 4
- EC50 (WT mGluR1α; [Ca^2+]o 1.8 mM): 0.01 µM
- Affinity (pKi) (mGluR1 [2]): 5.1 pKi

Compound: Cc1ccc(S(=O)(=O)N2CCC[C@H]2c2ccc(F)cc2)cc1 [Ro67-7476]
- Affinity (pKi) (mGluR1 [2]): 7.5-7.9 pKi

Compound: Fc1cccc(/C=N/N=C/c2cccc(F)c2)c1 [DFB]
- Affinity (pIC50) (mGluR5 [3]): 5.6-8.5 pIC50

Compound: COc1cc(-c2nc3ccccc3o2)ccc1CC#N [BOMA]
- Affinity (pKi) (mGluR5 [3]): 8.5 pKi

Compound: Cc1cc(C(=O)O)ccc1[C@H](N)C(=O)O [LY367385]
- Affinity (pIC50) (mGluR1 [1]): 5.1 pIC50
- Affinity (pKi) (mGluR1 [2]): 5.9 pKi

Compound: N[C@@H](Cn1oc(=O)[nH]c1=O)C(=O)O [L-Quis, L-Quisqualate]
- Affinity (pIC50) (mGluR5 [5]): 7.5 pIC50
- Emax (mGluR1α E325I; [Ca^2+]o 0 mM): 60 ± 8%
- Emax (mGluR1α E325I; [Ca^2+]o 1.8 mM): 88 ± 8%
- Emax (mGluR1α D322I; [Ca^2+]o 0 mM): 80 ± 16%
- Emax (mGluR1α D322I; [Ca^2+]o 1.8 mM): 96 ± 21%
- mGluR5 response initiated by L-Quis (mGluR5 [4]; 0 mM Ca^2+ bath solution): almost could not initiate any mGluR5 response; also recorded: hardly showed any response
- Percentage of cells with L-Quis-triggered response (mGluR5 [4]; absence of extracellular Ca^2+ addition): less than 20%
- Percentage of cells with L-Quis-triggered response (mGluR5 [4]; with addition of extracellular Ca^2+, 5 nM L-Quis): more than 60%
- [^3H]-L-Quis binding to the mutant (mGluR1α D318I): eliminates L-Quis-binding
- Emax (WT mGluR1α; HEK293, read-out: Maximal Response to L-Quis): 37 ± 4%

Compound: N[C@H](C(=O)O)[C@H]1C[C@@H]1C(=O)O [L-CCG-I]
- Affinity (pIC50) (mGluR5 [5]): 5.8 pIC50
- Affinity (pKi) (mGluR1 [2]): 5.6 pKi

Compound: N[C@H](C(=O)O)C12CC(C(=O)O)(C1)C2 [(S)-(+)-CBPG]
- Affinity (pIC50) (mGluR1 [2]): 4.2 pIC50

Compound: NC(C(=O)O)c1cc(O)ccc1Cl (stereo not shown) [CHPG]
- Affinity (pIC50) (mGluR5 [3]): 3.4 pIC50

Compound: N[C@H](C(=O)O)c1cccc(O)c1 [(S)-3HPG]
- Affinity (pIC50) (mGluR5 [5]): 5 pIC50
- Affinity (pIC50) (mGluR1 [2]): 4.9 pIC50

Compound: N[C@@]1(C(=O)O)CC[C@@H](C(=O)O)C1 [(1S,3R)-ACPD]
- Affinity (pIC50) (mGluR5 [5]): 5.7 pIC50

Compound: C=C1C[C@@H]2COC(=O)[C@]2(Cc2ccc3ccccc3c2)C1 [BAY 367620]
- Affinity (pIC50) (mGluR1 [2]): 6.8-8.0 pIC50

Compound: COc1ccc(Nc2ncnc3ccc(OC)cc23)cc1 [LY456236]
- Affinity (pIC50) (mGluR1 [1]): 6.9 pIC50

Compound: CCCOC(=O)c1[nH]c(C)c(C(=O)OC(C)C(C)(C)C)c1C (stereo not shown) [3,5-dimethyl PPP]
- Affinity (pIC50) (mGluR1 [2]): 7.8 pIC50

Compound: Cc1nc(C#Cc2cccc(C#N)c2)cs1 [MTEB]
- Affinity (pIC50) (mGluR5 [3]): 8.7 pIC50

Compound: N[C@H](C(=O)O)C12CC(c3nn[nH]n3)(C1)C2 [(S)-TBPG]
- Affinity (pIC50) (mGluR1 [2]): 4.2 pIC50

Compound: Cc1c(C(=O)N(C)C2CCCCC2)sc2nc3ccc(N)cc3n12 [YM298198]
- Affinity (pIC50) (mGluR1 [2]): 7.8 pIC50

Compound: NC1(C(=O)O)CCc2cc(C(=O)O)ccc21 (stereo not shown) [AIDA]
- Affinity (pA2) (mGluR1 [1]): 4.2 pA2
- Affinity (pKi) (mGluR1 [2]): 4 pKi

Compound: CN(C)c1nc(N)c(C(=O)Nc2ccccn2)nc1Cl [ACDPP]
- Affinity (pIC50) (mGluR5 [3]): 6.9 pIC50

Compound: Cc1cc(C(=O)O)sc1C(N)C(=O)O (stereo not shown) [3-MATIDA]
- Affinity (pIC50) (mGluR1 [2]): 5.2 pIC50

Compound: O=C(Nc1cc(-c2ccccc2)nn1-c1ccccc1F)c1ccc([N+](=O)[O-])cc1 [VU-1545]
- Affinity (pEC50) (mGluR5 [3]): 8 pEC50

Compound: NC(C(=O)O)c1cc(O)cc(O)c1 (stereo not shown) [3,5-DHPG]
- Affinity (pIC50) (mGluR5 [5]): 5.4 pIC50
- Affinity (pKi) (mGluR1 [2]): 5.8 pKi

Compound: O=C(NC12CC3CC(CC(C3)C1)C2)c1cnc2ccccc2n1 [NPS2390]
- Affinity (pKi) (mGluR1 [2]): 8.9 pKi

Compound: CCn1c(C)nc(N2CCc3ccccc3CC2)c(C#N)c1=O [EM-TBPC]
- Affinity (pIC50) (mGluR1 [2]): 6.9 pIC50

Compound: CCOC(=O)NC(=O)C(c1ccccc1)c1ccccc1 [Ro01-6128]
- Affinity (pKi) (mGluR1 [2]): 7.5-7.7 pKi

Compound: CN1CC(=O)NC1=NC(=O)Nc1cccc(Cl)c1 [fenobam]
- Affinity (pIC50) (mGluR5 [3]): 7.2 pIC50

Compound: N[C@H](C(=O)O)C1[C@@H](C(=O)O)[C@@H]1C(=O)O (stereo partly shown) [DCG-IV]
- Affinity (pIC50) (mGluR5 [5]): 4.7 pIC50
- Affinity (pKi) (mGluR1 [2]): 4.1 pKi

Compound: C[C@@](N)(C(=O)O)c1ccc(C(=O)O)cc1 [(s)-MCPG, (S)-α-Methyl-4-carboxyphenylglycine]
- Affinity (pIC50) (mGluR5 [5]): 3.7 pIC50
- Inhibition of activation of mGluR1α by L-Glu (WT mGluR1α; 1.5 mM (s)-MCPG, 5 μM L-Glu): entirely blocks
- Inhibition of responsiveness of mGluR1α to [Ca^2+]o (WT mGluR1α; 2.0 mM MCPG, 5 mM [Ca^2+]o): does not completely inhibit
- Affinity (pKi) (mGluR1 [2]): 3.8 pKi

Compound: O=C(c1ccc(F)cc1)N1CCC[C@H](c2nc(-c3ccc(F)cc3)no2)C1 [ADX-47273]
- Affinity (pIC50) (mGluR5 [5]): 6.5 pIC50

Compound: CN(C)c1ccnc2sc3c(=O)n(N4CCCCCC4)cnc3c12 [A841720]
- Affinity (pIC50) (mGluR1 [1]): 8 pIC50

Compound: N[C@H](C(=O)O)c1ccc(C(=O)O)cc1 [(S)-4CPG]
- Affinity (pIC50) (mGluR5 [5]): 4.6 pIC50
- Affinity (pKi) (mGluR1 [2]): 5.4 pKi

Compound: N[C@H](C(=O)O)c1cc(O)no1 [ibotenate]
- Affinity (pIC50) (mGluR5 [5]): 5.7 pIC50
- Affinity (pKi) (mGluR1 [2]): 5.9-6.4 pKi

Compound: CCCOC(=O)c1[nH]c(C)c(C(=O)O[C@@H](C)C(C)(C)C)c1C [DM-PPP]
- Affinity (pIC50) (mGluR1 [2]): 7.8 pIC50

Compound: N[C@H](C(=O)O)c1ccc(C(=O)O)c(O)c1 [(S)-4C3HPG]
- Affinity (pIC50) (mGluR5 [5]): 5.6 pIC50
- Affinity (pKi) (mGluR1 [1]): 5.8-6.0 pKi
